Experimental data reported in PubChem BioAssay AID651569 (Sanford-Burnham Center for Chemical Genomics, 2012).
Active and inactive are the calls of the source. How the calls were made is not given here.

Tested on: luminescent cytotoxicity (cell viability) counter-screen
Assay: cytotoxicity of Gli-SUFU antagonist hits, dose response, cytotoxicity control for Gli-SUFU antagonist project, cell-based, luminescence, uHTS hits (AID 651569);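 further: compound exposure lasted overnight before the viability readout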

SMILES | IC50
COc1ccc(NS(=O)(=O)c2cccc(NC(=O)c3ccc(S(=O)(=O)N4CCCCCC4)cc3)c2)cc1 | > 20 µM (inactive)
CCOC(=O)N1CCN(C(=O)c2ccc(CSc3ccc(Cl)cc3)cc2)CC1 | > 20 µM (inactive)
Cc1nc2ccccc2c2c1CC(C(C)(Cl)Br)O2 (stereo unspecified) | > 20 µM (inactive)
O=C(Nc1cc(N2CCCCC2)ncn1)c1ccccc1 | > 20 µM (inactive)
COc1ccc(-c2c[n+](CC(=O)c3ccccc3)c3n2CCCCC3)cc1 | > 20 µM (inactive)
COc1ccccc1CN(Cc1nc2ccccc2c(=O)[nH]1)S(=O)(=O)c1ccc(C)cc1 | > 20 µM (inactive)
O=C(NC1CCCC1)c1cc(COc2ccc3ncccc3c2)on1 | > 20 µM (inactive)
COc1ccc(NS(=O)(=O)c2ccc(N3CCN(CCO)CC3)c([N+](=O)[O-])c2)cc1 | > 20 µM (inactive)
COc1ccc(-n2cc(-c3ccc(OC(F)F)cc3)[n+]3c2CCCCC3)cc1 | > 20 µM (inactive)
CC(=O)c1cn(Cc2ccccc2F)c2ccccc12 | > 20 µM (inactive)
Cc1ccc(S(=O)(=O)N2CCN(C(=O)C3CCN(c4ncnc5sc(C)c(C)c45)CC3)CC2)c(C)c1 | > 20 µM (inactive)
NC(=O)c1ccccc1OCC(=O)N1CCC(Cc2ccccc2)CC1 | > 20 µM (inactive)
Cc1ncoc1C(=O)NC1CCCc2c1cnn2-c1ccc(C(C)(C)C)cc1 (stereo unspecified) | > 20 µM (inactive)
CC(=O)c1ccc(N2CCN(c3ccc(C(F)(F)F)cn3)CC2)cc1 | > 20 µM (inactive)
O=C(Nc1cccc(C(F)(F)F)c1)C1CCN(S(=O)(=O)c2ccc(N3CCCC3=O)cc2)CC1 | > 20 µM (inactive)
CC(=O)c1c(C)[nH]c(C(=O)OCC(=O)Nc2ccc(C)cc2[N+](=O)[O-])c1C | 18.9 µM
CCOC(=O)c1sc2nc(CC(=O)OC)nc(NCc3ccc(Cl)cc3)c2c1C | > 20 µM (inactive)
Cc1nc2cc(N3CCN(C)CC3)c(NC(=O)Cc3ccccc3)cc2c(=O)n1Cc1ccccc1 | > 20 µM (inactive)
O=C(Cc1csc(Nc2nc(=S)[nH]c3ccccc23)n1)NCCCN1CCN(c2ccccc2F)CC1 | > 20 µM (inactive)
CCCCn1c(SCc2c(C)noc2C)nc2cc(S(N)(=O)=O)ccc21 | > 20 µM (inactive)
O=C(Cn1cnc2ccccc21)Nc1cccc(S(=O)(=O)N2CCCC2)c1 | > 20 µM (inactive)
Cc1nnsc1C(=O)Nc1ccc(S(=O)(=O)N2CCC(C)CC2)cc1 | > 20 µM (inactive)
CC(C)=CCC/C(C)=C/CNC(=O)C[C@H]1C[C@H](C(=O)N2CCOCC2)[C@@]2(C)c3[nH]c4cc(CCC(=O)N(C)C)ccc4c3CCN2C1=O | > 20 µM (inactive)
O=C(Cn1cc(C(=O)C2CC2)c2ccccc21)Nc1ccccc1Cl | > 20 µM (inactive)

SMILES | IC50
CC1Cc2cc(S(=O)(=O)N3CCC(C(=O)N4CCN(c5ccccc5F)CC4)CC3)ccc2N1C(=O)C1CC1 (stereo unspecified) | 7.01 µM
Cc1ccc(-c2csc(NC(=O)c3c(C)noc3C)n2)s1 | > 20 µM (inactive)
COc1ccccc1C(=O)NC(=S)/C=C1/N(C)c2ccccc2C1(C)C | > 20 µM (inactive)
COc1ccc(OC)c(Cc2cnc3nc(N)nc(N)c3c2C)c1 | > 20 µM (inactive)
Cc1cc(NC(=O)CSc2nc3c([nH]c4ccccc43)c(=O)n2-c2ccccc2F)no1 | > 20 µM (inactive)
CCOC(=O)c1c(NC(=O)COc2cccc3c2CCN(C)C3=O)sc2c1CCC2 | > 20 µM (inactive)
CC(=O)c1cn(CCOc2ccccc2C)c2ccccc12 | > 20 µM (inactive)
COCCNc1nc2c(c(=O)n(C)c(=O)n2C)n1Cc1cccc(C)c1 | > 20 µM (inactive)
CC(C)(C)[C@H]1COC(=O)[C@H](NC(=O)OCC2c3ccccc3-c3ccccc32)C/C=C\C[C@@H](CC(=O)N(CCO)Cc2ccccc2)C(=O)N1 | > 20 µM (inactive)
Cc1cc(-c2ccccc2)cc(-c2ccccc2)[n+]1C | > 20 µM (inactive)
CCCCOC(=O)c1[nH]c2c(c1C)C(=O)CC(c1cc(OC)c(OC)c(OC)c1)C2 (stereo unspecified) | > 20 µM (inactive)
Nc1nc2ccccc2n1/N=C/c1ccc([N+](=O)[O-])s1 | > 20 µM (inactive)
CC(CC(=O)N1CCN(c2cccc(Cl)c2)CC1)S(=O)(=O)c1ccc2c(c1)NC(=O)CO2 (stereo unspecified) | > 20 µM (inactive)
O=C(c1cc2sccc2n1Cc1ccc(F)cc1)N1CCN(c2nc3ccccc3s2)CC1 | > 20 µM (inactive)
Cc1csc2ncnc(NCCc3ccccn3)c12 | > 20 µM (inactive)
FC(F)Oc1ccc(-c2c[n+]3c(n2-c2ccccc2)CCCCC3)cc1 | > 20 µM (inactive)
Clc1ccc(-c2cn(-c3ccc(Cl)cc3)c3[n+]2CCCCC3)cc1 | > 20 µM (inactive)
CCCCNc1c(-c2ccc(OC)c(Sc3ccc(OC)cc3)c2)nc2ccccn12 | 12.9 µM
Cc1ccc(O)c(NC(=O)COc2cc(C)ccc2C)c1 | > 20 µM (inactive)
C[N+]1(CC(=O)OC2CCCCCCCCCCC2)CCCC1 | > 20 µM (inactive)
COc1cccc2nc3c(C(=O)NCCN(C)C)cccc3cc12 | 10.6 µM
Clc1ccc(-c2c[n+](Cc3ccc(Cl)cc3Cl)c3n2CCCCC3)cc1 | 9.17 µM
COc1ccc(C2=[N+](C)CCn3cccc32)c(OC)c1 | > 20 µM (inactive)
O=C(Nc1ccccc1)C1=C[C@H](C2CCCCC2)C[C@H](OCCCCO)O1 | > 20 µM (inactive)

SMILES | IC50
COc1ccc(CNc2cc(C)nc3ncnn23)c(OC)c1 | > 20 µM (inactive)
O=C(c1cc(COc2cccc3cnccc23)on1)N1CCCC(CCCO)C1 (stereo unspecified) | > 20 µM (inactive)
CCOc1ccc(-c2nc(CSCC(=O)NC3CC3)c(C)o2)cc1 | > 20 µM (inactive)
C=CCOC(=O)c1[nH]c2c(c1C)C(=O)CC(c1cc(OC)c(OC)c(OC)c1)C2 (stereo unspecified) | > 20 µM (inactive)
CCCCCn1c(=N)n(CC(O)COc2ccccc2OC)c2ccccc21 (stereo unspecified) | > 20 µM (inactive)
CC(C)Cn1c(N)c(C(=O)COC(=O)C2Cc3ccccc3CN2S(C)(=O)=O)c(=O)n(C)c1=O (stereo unspecified) | > 20 µM (inactive)
COc1ccc(NC(=S)N2CCC(Cc3ccccc3)CC2)cc1 | > 20 µM (inactive)
CCn1c(/C=C/Nc2ccccc2)[n+](CC)c2ccc(Cl)cc21 | > 20 µM (inactive)
CCN1C(=O)CCN(C2CCCC2)c2nc(Nc3ccc(C(=O)NC4CCN(C)CC4)cc3OC)ncc21 | > 20 µM (inactive)
CC1CCC(NC(=O)c2cccc(S(=O)(=O)N3CCN(c4ccccc4)CC3)c2)CC1 (stereo unspecified) | > 20 µM (inactive)
Cc1nnsc1C(=O)NC1CCCc2c1cnn2-c1ccc(F)cc1F (stereo unspecified) | > 20 µM (inactive)
CCCCSc1nc2sc3c(c2c(=O)n1-c1ccc(C)cc1)CCN(C)C3 | > 20 µM (inactive)
CCn1c(=NC(=O)CS(=O)(=O)c2ccccc2)sc2cccc(OC)c21 | > 20 µM (inactive)
Cc1sc2ncnc(NCC3COc4ccccc4O3)c2c1C (stereo unspecified) | > 20 µM (inactive)
CC[N+]1=C(C)C(C)(C)c2cc(C)ccc21 | > 20 µM (inactive)
Cc1nn(C)c(C(=O)NCc2ccc(Cl)cc2)c1Cl | > 20 µM (inactive)
Cc1cccnc1CN1CCN(C(=O)c2cc(COc3ccc4ncccc4c3)on2)CC1 | > 20 µM (inactive)
CC(C)(C)[C@H]1COC(=O)[C@H](NC(=O)OCC2c3ccccc3-c3ccccc32)C/C=C\C[C@@H](CC(=O)N[C@@H](CO)Cc2ccccc2)C(=O)N1 | > 20 µM (inactive)
CC(Sc1nc2ccccc2c(=O)n1C)C(=O)N(C)C1CCCCC1 (stereo unspecified) | > 20 µM (inactive)
CN(Cc1nccs1)C(=O)c1cc(COc2cccc3cnccc23)on1 | > 20 µM (inactive)
Cc1nn(-c2ccc(NC(=O)c3ccncc3)cc2)c(C)c1Cl | > 20 µM (inactive)
O=C(C[C@@H]1C/C=C\C[C@H](NC(=O)OCC2c3ccccc3-c3ccccc32)C(=O)OC[C@H]2CCCN2C1=O)N[C@H](CO)Cc1ccccc1 | > 20 µM (inactive)
c1ccc(-c2c[n+]3c(n2-c2ccccc2)CCC3)cc1 | > 20 µM (inactive)
